Laboratory results taken from US20250230155A1 (Vanderbilt University, priority 2021, published 2025).
Values belong to the compound of their own block, whether it stands above or below them.

Target: T1, human mAChR M4 (Homo sapiens, UniProt P08173)
T1 construct: expressed in transfected cells
T1 sequence (P08173 1-479): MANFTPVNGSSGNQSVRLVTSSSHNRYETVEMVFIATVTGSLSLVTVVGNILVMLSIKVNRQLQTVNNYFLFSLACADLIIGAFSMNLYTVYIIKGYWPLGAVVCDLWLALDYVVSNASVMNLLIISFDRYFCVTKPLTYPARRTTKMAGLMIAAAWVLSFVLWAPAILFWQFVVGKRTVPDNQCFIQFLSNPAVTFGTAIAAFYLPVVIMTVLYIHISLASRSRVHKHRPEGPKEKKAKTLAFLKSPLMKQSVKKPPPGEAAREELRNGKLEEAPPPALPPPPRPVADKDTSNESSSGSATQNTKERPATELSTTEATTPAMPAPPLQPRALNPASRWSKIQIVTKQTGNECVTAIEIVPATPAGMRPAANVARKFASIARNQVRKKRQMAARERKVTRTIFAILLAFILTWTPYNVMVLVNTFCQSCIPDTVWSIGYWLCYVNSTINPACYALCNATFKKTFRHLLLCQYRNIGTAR
Assay: mAChR M4 cell-based functional assay (calcium mobilization, CHO-K1 hM4-Gqi5 cells)
Details: for Emax at 30 µM: CHO-K1, % ACh maximum at 30 μM, human M4; for EC50: positive allosteric modulator activity, increase in the EC20 acetylcholine response, CHO-K1 hM4-Gqi5 cells, read-out: Human M4 EC50
Description: Human and rat M4 cDNAs, along with the chimeric G protein Gqi5, were transfected into Chinese hamster ovary (CHO-K1) cells purchased from the American Type Culture Collection using Lipofectamine2000. hM4-Gqi5 cells were grown in Ham's F-12 medium containing 10% heat-inactivated fetal bovine serum (FBS), 20 mM HEPES, 50 μg/mL G418 sulfate, and 500 μg/mL Hygromycin B. rM4-Ggi5 cells were grown in DiVEM containing 10% heat-inactivated FBS, 20 mM THEPES, 400 μμg/mL G418 sulfate, and 500 μμg/mL Hygromycin B.
For high throughput measurement of agonist-evoked increases in intracellular calcium, CHO-K1 cells stably expressing muscarinic receptors were plated in growth medium lacking G418 and hygromycin at 15,000 cells/20 μL/well in Greiner 384-well black-walled, tissue culture (TC)-treated, clear-bottom plates (VWR). Cells were incubated overnight at 37° C. and 5% CO2. The next day, cells were washed using an ELX 405 (BioTek) with assay buffer; the final volume was then aspirated to 20 μL. Next, 20 μL of a […] of Fluo-4/acetoxymethyl ester (Invitrogen, Carlsbad, CA), prepared as a 2.3 mM stock in DMSO and mixed in a 1:1 ratio with 10% (w/v) Pluronic F-127 and diluted in assay buffer, was added to the wells and the cell plates were incubated for 50 min at 37° C. and 5% C02. Dye was removed by washing with the ELX 405 and the final volume was aspirated to 20 μL. Compound master plates were formatted in an 11 point concentration-response curve (CRC) format (1:3 dilutions) in 100% DMSO with a starting concentration of 10 mM using a BRAVO liquid handler (Agilent). Test compound CRCs were then transferred to daughter plates (240 nL) using the Echo acoustic plate reformatter (Labcyte, Sunnyvale, CA) and then diluted into assay buffer (40 μL) to a 2× stock using a Thermo Fisher Combi (Thermo Fisher Scientific, Waltham, MA).
Calcium flux was measured using the Functional Drug Screening System (FDSS) 6000 or 7000 (Hamamatsu Corporation, Tokyo, Japan) as an increase in the fluorescent static ratio. Compounds were applied to cells (20 μL, 2×) using the automated system of the FDSS at 2-4 seconds into the protocol and the data were collected at 1 Hz. At 144 seconds, 10 μL of an EC20 concentration of the muscarinic receptor agonist acetylcholine was added (5×), followed by the addition of 12 μL of an EC80 concentration of acetylcholine at the 230 second time point (5×). Agonist activity was analyzed as a concentration-dependent increase in calcium mobilization upon compound addition. Positive allosteric modulator activity was analyzed as a concentration-dependent increase in the EC20 acetylcholine response. Antagonist activity was analyzed as a concentration-dependent decrease in the EC80 acetylcholine response. Concentration-response curves were generated using a four-parameter logistical equation in XLFit curve fitting software (IDBS, Bridgewater, NJ) for Excel (Microsoft, Redmond, WA) or Prism (GraphPad Software, Inc., San Diego, CA).
Compounds were synthesized as described above. Activity (EC50 and Emax) was determined in the mAChR M4 cell-based functional assay as described above and the data are shown in Table 2. The compound number corresponds to the compound numbers used in Table 1.

Structure (SMILES): Cc1c(C#N)nnc(N2CCc3ncc(-c4ccc(N5CC6CC5CO6)nc4)cc3C2)c1C (stereo not drawn) [Example 333, 6-(3-(6-(2-oxa-5-azabicyclo[2.2.1]heptan-5-yl)pyridin-3-yl)-7,8-dihydro-1,6-naphthyridin-6(5H)-yl)-4,5-dimethylpyridazine-3-carbonitrile]
Emax at 30 µM: 72%
EC50: 0.817 µM

Structure (SMILES): Cc1c(C#N)nnc(N2CCc3ncc(-c4ccc(F)nc4)cc3C2)c1C [Example 334, 6-(3-(6-fluoropyridin-3-yl)-7,8-dihydro-1,6-naphthyridin-6(5H)-yl)-4,5-dimethylpyridazine-3-carbonitrile]
Emax at 30 µM: 60%
EC50: 0.582 µM

Structure (SMILES): Cc1c(C#N)nnc(N2CCc3ncc(-c4ccc(N5CCN(C6CC6)CC5)nc4)cc3C2)c1C [Example 335, 6-(3-(6-(4-cyclopropylpiperazin-1-yl)pyridin-3-yl)-7,8-dihydro-1,6-naphthyridin-6(5H)-yl)-4,5-dimethylpyridazine-3-carbonitrile]
Emax at 30 µM: 41%
EC50: 0.386 µM

Structure (SMILES): Cc1cc(C#N)cnc1N1CCc2ncc(-c3ccnc(F)c3)cc2C1 [Example 340, 6-(3-(2-fluoropyridin-4-yl)-7,8-dihydro-1,6-naphthyridin-6(5)-yl)-5-methylnicotinonitrile]
Emax at 30 µM: 81%
EC50: 7.55 µM

Structure (SMILES): COc1cc(-c2cnc3c(c2)CN(c2ncc(C#N)cc2C)CC3)c(Cl)cn1 [Example 341, 6-(3-(5-chloro-2-methoxypyridin-4-yl)-7,8-dihydro-1,6-naphthyridin-6(5H)-yl)-5-methylnicotinonitrile]
Emax at 30 µM: 49%
EC50: 1.49 µM

Structure (SMILES): Cc1cc(C#N)cnc1N1CCc2ncc(-n3cccn3)cc2C1 [Example 344, 6-(3-(1H-pyrazol-1-yl)-7,8-dihydro-1,6-naphthyridin-6(5H)-yl)-5-methylnicotinonitrile]
Emax at 30 µM: 88%
EC50: 0.38 µM

Structure (SMILES): Cc1cc(C#N)cnc1N1CCc2ncc(-n3nccc3C)cc2C1 [Example 345, 5-methyl-6-(3-(5-methyl-1H-pyrazol-1-yl)-7,8-dihydro-1,6-naphthyridin-6(5H)-yl)nicotinonitrile]
Emax at 30 µM: 86%
EC50: 0.341 µM

Structure (SMILES): Cc1cc(C)n(-c2cnc3c(c2)CN(c2ncc(C#N)cc2C)CC3)n1 [Example 346, 6-(3-(3,5-dimethyl-1H-pyrazol-1-yl)-7,8-dihydro-1,6-naphthyridin-6(5H)-yl)-5-methylnicotinonitrile]
Emax at 30 µM: 88%
EC50: 1.3 µM

Structure (SMILES): Cc1cc(C#N)cnc1N1Cc2cc(C(F)(F)F)cnc2C(C)C1 (stereo not drawn) [Example 347, 5-methyl-6-(8-methyl-3-(trifluoromethyl)-7,8-dihydro-1,6-naphthyridin-6(5H)-yl)nicotinonitrile]
Emax at 30 µM: 82%
EC50: 0.992 µM

Structure (SMILES): Cc1ccc(Oc2cnc3c(c2)CN(c2ncc(C#N)cc2C)CC3)c(F)c1 [Example 349, 6-(3-(2-fluoro-4-methylphenoxy)-7,8-dihydro-1,6-naphthyridin-6(5H)-yl)-5-methylnicotinonitrile]
Emax at 30 µM: 72%
EC50: 1.12 µM

Structure (SMILES): Cc1cc(C#N)cnc1N1CCc2ncc(Oc3cccc(F)c3F)cc2C1 [Example 350, 6-(3-(2,3-difluorophenoxy)-7,8-dihydro-1,6-naphthyridin-6(5H)-yl)-5-methylnicotinonitrile]
Emax at 30 µM: 84%
EC50: 0.547 µM

The next compounds have a lower EC50 than those just listed; values first:

Emax at 30 µM: 49%
EC50: 0.258 µM
Structure (SMILES): Cc1cc(C#N)cnc1N1CCc2ncc(-c3ccnc(C#N)c3)cc2C1 [Example 336, 4-(6-(5-cyano-3-methylpyridin-2-yl)-5,6,7,8-tetrahydro-1,6-naphthyridin-3-yl)picolinonitrile]

Emax at 30 µM: 71%
EC50: 0.27 µM
Structure (SMILES): Cc1cc(C#N)cnc1N1CCc2ncc(-c3cc(F)ncc3F)cc2C1 [Example 337, 6-(3-(2,5-difluoropyridin-4-yl)-7,8-dihydro-1,6-naphthyridin-6(5H)-yl)-5-methylnicotinonitrile]

Emax at 30 µM: 91%
EC50: 0.315 µM
Structure (SMILES): COc1cc(-c2cnc3c(c2)CN(c2ncc(C#N)cc2C)CC3)ccn1 [Example 338, 6-(3-(2-methoxypyridin-4-yl)-7,8-dihydro-1,6-naphthyridin-6(5H)-yl)-5-methylnicotinonitrile]

Emax at 30 µM: 90%
EC50: 0.277 µM
Structure (SMILES): Cc1cc(C#N)cnc1N1CCc2ncc(-c3ccnc(C4CC4)c3)cc2C1 [Example 339, 6-(3-(2-cyclopropylpyridin-4-yl)-7,8-dihydro-1,6-naphthyridin-6(5H)-yl)-5-methylnicotinonitrile]

Emax at 30 µM: 86%
EC50: 0.064 µM
Structure (SMILES): Cc1c(C#N)nnc(N2CCc3ncc(N4CCCn5nccc54)cc3C2)c1C [Example 342, 6-(3-(6,7-dihydropyrazolo[1,5-a]pyrimidin-4(5H)-yl)-7,8-dihydro-1,6-naphthyridin-6(5H)-yl)-4,5-dimethylpyridazine-3-carbonitrile]

Emax at 30 µM: 97%
EC50: 0.226 µM
Structure (SMILES): Cc1cc(C#N)cnc1N1CCc2ncc(-n3ccnc3)cc2C1 [Example 343, 6-(3-(1H-imidazol-1-yl)-7,8-dihydro-1,6-naphthyridin-6(5H)-yl)-5-methylnicotinonitrile]

Emax at 30 µM: 70%
EC50: 0.331 µM
Structure (SMILES): Cc1c(C#N)nnc(N2Cc3cc(C(F)(F)F)cnc3C(C)C2)c1C (stereo not drawn) [Example 348, 4,5-dimethyl-6-(8-methyl-3-(trifluoromethyl)-7,8-dihydro-1,6-naphthyridin-6(5H)-yl)pyridazine-3-carbonitrile]

Emax at 30 µM: 88%
EC50: 0.16 µM
Structure (SMILES): Cc1cc(C#N)cnc1N1CCc2ncc(Oc3cc(F)ccc3F)cc2C1 [Example 351, 6-(3-(2,5-difluorophenoxy)-7,8-dihydro-1,6-naphthyridin-6(5H)-yl)-5-methylnicotinonitrile]

Emax at 30 µM: 64%
EC50: 0.233 µM
Structure (SMILES): Cc1c(C#N)nnc(N2CCc3ncc(Oc4cccc(F)c4F)cc3C2)c1C [Example 352, 6-(3-(2,3-difluorophenoxy)-7,8-dihydro-1,6-naphthyridin-6(5H)-yl)-4,5-dimethylpyridazine-3-carbonitrile]

Emax at 30 µM: 73%
EC50: 0.126 µM
Structure (SMILES): Cc1c(C#N)nnc(N2CCc3ncc(Oc4cc(F)ccc4F)cc3C2)c1C [Example 353, 6-(3-(2,5-difluorophenoxy)-7,8-dihydro-1,6-naphthyridin-6(5H)-yl)-4,5-dimethylpyridazine-3-carbonitrile]

Emax at 30 µM: 64%
EC50: 0.271 µM
Structure (SMILES): Cc1c(C#N)nnc(N2CCc3ncc(Oc4ccc(F)cc4F)cc3C2)c1C [Example 354, 6-(3-(2,4-difluorophenoxy)-7,8-dihydro-1,6-naphthyridin-6(5H)-yl)-4,5-dimethylpyridazine-3-carbonitrile]

Emax at 30 µM: 81%
EC50: 0.297 µM
Structure (SMILES): Cc1cc(C#N)nnc1N1CCc2ncc(Oc3ccc(F)cc3F)cc2C1 [Example 355, 6-(3-(2,4-difluorophenoxy)-7,8-dihydro-1,6-naphthyridin-6(5H)-yl)-5-methylpyridazine-3-carbonitrile]

Emax at 30 µM: 83%
EC50: 0.276 µM
Structure (SMILES): Cc1cc(C#N)nnc1N1CCc2ncc(Oc3cccc(F)c3F)cc2C1 [Example 356, 6-(3-(2,3-difluorophenoxy)-7,8-dihydro-1,6-naphthyridin-6(5H)-yl)-5-methylpyridazine-3-carbonitrile]
